Results: the supplement of paper PMC10307832

What was measured:
Assay in all cases: relative viability (nuclei count vs DMSO), 5 days (fraction); higher = more cells survive
[1] = compound: CC1=CC(=CC=C1)NC2=NC(=CS2)C3=CC=NC=C3 + CC(=O)c1c(C)c2cnc(Nc3ccc(N4CCNCC4)cn3)nc2n(C2CCCC2)c1=O [Palbociclib] (partner 0.5 µM)
Summary of the method: (§1)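 For relative viability, nuclei counts in treated wells were divided by those in vehicle wells. Lung cancer cell lines had been pin-tool dosed in 1536-well plates the day after seeding and cultured for 5 days, then fixed and stained in one step (final 0.05% Triton X-100, 1% formaldehyde, 1 ug/ml Hoechst) and imaged at 4×. Doses were one drug alone or a fixed anchor-drug dose plus five library-drug doses (not always all listed) in √10 steps, and values are duplicate-plate medians.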

Masitinib + Bortezomib = compound: Cc1ccc(NC(=O)c2ccc(CN3CCN(C)CC3)cc2)cc1Nc1nc(-c2cccnc2)cs1 [Masitinib] + CC(C)C[C@H](NC(=O)[C@H](Cc1ccccc1)NC(=O)c1cnccn1)B(O)O [Bortezomib] (partner 0.002 µM)
Summary of the method: as §1

[2] = compound: CC1=CC(=CC=C1)NC2=NC(=CS2)C3=CC=NC=C3 + C[C@@H](Oc1cc(-c2cnn(C3CCNCC3)c2)cnc1N)c1c(Cl)ccc(F)c1Cl [Crizotinib] (partner 1 µM)
Summary of the method: as §1

Masitinib + Vorinostat = compound: Cc1ccc(NC(=O)c2ccc(CN3CCN(C)CC3)cc2)cc1Nc1nc(-c2cccnc2)cs1 [Masitinib] + O=C(CCCCCCC(=O)Nc1ccccc1)NO [Vorinostat] (partner 1 µM)
Summary of the method: as §1

Row | Cell Line | relative viability ([1]; first compound 0.08 µM) | relative viability ([1]; first compound 0.253 µM) | relative viability ([1]; first compound 0.8 µM) | relative viability ([1]; first compound 2.53 µM) | relative viability ([1]; first compound 8 µM) | relative viability (Masitinib + Bortezomib; first compound 0.01 µM) | relative viability (Masitinib + Bortezomib; first compound 0.03162 µM) | relative viability (Masitinib + Bortezomib; first compound 0.1 µM) | relative viability (Masitinib + Bortezomib; first compound 0.3162 µM) | relative viability (Masitinib + Bortezomib; first compound 1 µM) | relative viability ([2]; first compound 0.08 µM) | relative viability ([2]; first compound 0.253 µM) | relative viability ([2]; first compound 0.8 µM) | relative viability ([2]; first compound 2.53 µM) | relative viability ([2]; first compound 8 µM) | relative viability (Masitinib + Vorinostat; first compound 0.01 µM) | relative viability (Masitinib + Vorinostat; first compound 0.03162 µM) | relative viability (Masitinib + Vorinostat; first compound 0.1 µM) | relative viability (Masitinib + Vorinostat; first compound 0.3162 µM) | relative viability (Masitinib + Vorinostat; first compound 1 µM)
1 | HCC-78 | 0.367 | 0.438 | 0.4 | 0.447 | 0.511 | 0.49 | 0.419 | 0.515 | 0.406 | 0.394 | 0.324 | 0.312 | 0.311 | 0.333 | 0.346 | 0.485 | 0.435 | 0.468 | 0.47 | 0.388
2 | HCC-366 | 0.372 | 0.343 | 0.274 | 0.275 | 0.257 | 1.04 | 0.905 | 1.08 | 1.01 | 1.14 | 0.346 | 0.387 | 0.351 | 0.451 | 0.638 | – | 0.335 | 0.344 | 0.249 | 0.334
3 | HCC-827 | 0.495 | 0.435 | 0.431 | 0.518 | 0.37 | 0.842 | 1.04 | 1.03 | 1.09 | 1.08 | 0.945 | 0.91 | 0.854 | 0.89 | 0.856 | 0.603 | 0.845 | 0.712 | 0.876 | 0.745
4 | HOP-62 | 0.454 | 0.446 | 0.497 | 0.447 | 0.571 | 0.573 | 0.598 | 0.845 | 0.799 | 0.769 | 0.935 | 0.788 | 0.944 | 0.503 | 0.93 | 0.588 | 0.573 | 0.681 | 0.746 | 0.687
5 | IA-LM | – | – | – | – | – | 0.85 | 0.975 | 0.836 | 0.681 | 1.05 | 0.519 | 0.581 | 0.86 | 0.563 | 0.466 | 0.737 | 0.747 | 1.06 | 1.19 | 0.957
6 | LC-2-ad | 0.469 | 0.532 | 0.466 | 0.542 | 0.436 | 0.816 | 0.992 | 0.926 | 0.996 | 0.93 | 0.45 | 0.419 | 0.394 | 0.397 | 0.396 | 0.546 | 0.666 | 0.584 | 0.694 | 0.718
7 | LCLC-97TM1 | 0.172 | 0.216 | 0.206 | 0.217 | 0.276 | 0.61 | – | 0.749 | 0.741 | 0.83 | – | – | 0.744 | 0.366 | 0.42 | 0.534 | 0.778 | 0.472 | 0.887 | 0.712
8 | LK-2 | – | 0.764 | 0.675 | 0.699 | 1.06 | – | – | – | – | – | 0.261 | 0.197 | 0.229 | – | 0.246 | 0.246 | 0.265 | 0.393 | 0.225 | 0.369
9 | NCI-H358 | 0.132 | 0.15 | 0.151 | 0.144 | 0.129 | – | – | – | – | – | 0.509 | 0.576 | 0.562 | 0.542 | 0.512 | 0.72 | 0.658 | 0.773 | 0.641 | 0.616
10 | NCI-H522 | 1.19 | 0.797 | 0.92 | 0.954 | 0.947 | – | – | – | – | – | – | – | – | – | – | 0.822 | 0.904 | 1.07 | 1.06 | 0.821
11 | NCI-H596 | – | – | – | – | – | 1.09 | 1.06 | 1.2 | 1.01 | 1.23 | 0.875 | 0.929 | 0.814 | 0.943 | 0.971 | 0.702 | 0.546 | 0.545 | 0.533 | 0.588
12 | NCI-H1299 | – | – | – | – | – | 0.985 | 1.05 | 0.995 | 1.01 | 1 | 0.89 | 0.891 | 0.924 | 0.931 | 0.804 | – | – | – | – | –
13 | NCI-H1395 | 0.577 | – | 0.546 | 0.556 | 0.606 | – | – | – | – | – | – | – | – | – | – | 0.765 | 0.613 | 0.787 | 0.774 | 0.637
14 | NCI-H1563 | – | – | – | – | – | 0.778 | 0.789 | 0.905 | 0.81 | 0.713 | 0.958 | 0.916 | 0.887 | 0.909 | 0.86 | – | – | – | – | –
15 | NCI-H1648 | 0.242 | 0.263 | 0.281 | 0.295 | 0.302 | – | – | – | – | – | – | – | – | – | – | 0.471 | 0.401 | 0.454 | – | 0.555
16 | NCI-H1703 | – | – | – | – | – | 0.29 | 0.246 | 0.229 | 0.269 | 0.174 | 0.73 | 1.01 | 0.683 | 0.878 | 0.799 | – | – | – | – | –
17 | NCI-H1792 | 0.596 | – | 0.614 | 0.624 | 0.672 | 0.759 | 0.387 | 0.945 | 0.994 | 1.01 | 0.99 | 0.767 | 0.886 | 0.815 | 0.947 | – | – | – | – | –
18 | NCI-H1793 | 0.269 | 0.305 | 0.297 | 0.261 | 0.336 | – | – | – | – | – | – | – | – | – | – | 0.828 | 0.66 | 0.712 | 0.379 | 0.687
19 | NCI-H1944 | 0.288 | 0.307 | 0.298 | 0.299 | 0.292 | – | – | – | – | – | 1.08 | 0.98 | 0.973 | 1.01 | 0.948 | – | 0.528 | – | 0.547 | 0.5
20 | NCI-H2170 | 0.358 | 0.403 | 0.358 | 0.435 | 0.299 | – | – | – | – | – | 1.11 | 1.13 | 1.09 | 1.09 | 1.05 | 0.781 | 0.708 | 0.908 | 0.869 | 0.823
21 | NCI-H2342 | 0.455 | 0.491 | 0.557 | 0.503 | 0.497 | – | – | – | – | – | – | – | – | – | – | 0.789 | 0.671 | 0.829 | 0.856 | 0.83
22 | SK-MES-1 | 0.259 | 0.243 | 0.328 | 0.311 | 0.32 | – | – | – | – | – | 0.79 | 0.781 | 0.815 | 0.842 | 0.853 | 0.876 | 1.15 | 1.03 | 0.984 | 1.07
23 | SW 900 | 0.508 | 0.464 | 0.49 | 0.477 | 0.46 | – | – | – | – | – | – | – | – | – | – | 0.48 | 0.502 | 0.375 | 0.259 | 0.505
